This is an account of results in patent publication US8268862B2, “Sirtuin modulating compounds” (Sirtris Pharmaceuticals, Inc., priority 2007, dated 2012).

The structures appear in SMILES notation.

The experiment deals with T1, SIRT1 (Homo sapiens, UniProt Q96EB6).
T1 sequence (Q96EB6 1-747): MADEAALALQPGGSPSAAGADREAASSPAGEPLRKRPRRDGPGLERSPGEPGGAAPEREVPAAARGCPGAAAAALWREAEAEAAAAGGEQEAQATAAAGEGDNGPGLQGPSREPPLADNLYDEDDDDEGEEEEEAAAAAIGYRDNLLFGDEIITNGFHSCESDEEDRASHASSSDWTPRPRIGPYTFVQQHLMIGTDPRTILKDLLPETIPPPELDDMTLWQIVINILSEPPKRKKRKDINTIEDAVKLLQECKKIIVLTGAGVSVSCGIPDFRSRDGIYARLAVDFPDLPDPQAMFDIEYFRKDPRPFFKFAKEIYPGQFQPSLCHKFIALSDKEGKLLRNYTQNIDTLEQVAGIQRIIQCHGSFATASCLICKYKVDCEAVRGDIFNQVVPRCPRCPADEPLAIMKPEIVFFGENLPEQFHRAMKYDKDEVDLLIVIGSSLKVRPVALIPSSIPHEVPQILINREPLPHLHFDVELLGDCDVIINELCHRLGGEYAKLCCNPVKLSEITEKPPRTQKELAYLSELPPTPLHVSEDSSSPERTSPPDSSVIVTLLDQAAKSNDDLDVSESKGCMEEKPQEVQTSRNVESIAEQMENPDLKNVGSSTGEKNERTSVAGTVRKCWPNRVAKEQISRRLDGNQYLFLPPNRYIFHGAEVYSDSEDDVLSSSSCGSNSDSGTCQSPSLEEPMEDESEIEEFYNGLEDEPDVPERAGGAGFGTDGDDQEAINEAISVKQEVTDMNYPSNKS
Briefly: mass spectrometry based SIRT1 deacetylation assay (activation). The experiment is classed as biochemical. The following applies: 0.5 μM peptide substrate, 120 μM βNAD+, 10 nM SIRT1, 25 min at 25° C.; for EC1.5 (concentration of test compound that results in 150% activation of SIRT1): NA = not active in the assay; for Emax: read-out: % FOLD ACT. (percent maximum fold activation of SIRT1). From the text:
A mass spectrometry based assay was used to identify modulators of SIRT1 activity. The mass spectrometry based assay utilizes a peptide having 20 amino acid residues as follows: Ac-EE-K(biotin)-GQSTSSHSK(Ac)NleSTEG-K(5TMR)-EE-NH2 (SEQ ID NO: 1) wherein K(Ac) is an acetylated lysine residue and Nle is a norleucine. The peptide is labeled with the fluorophore 5TMR (excitation 540 nm/emission 580 nm) at the C-terminus. The sequence of the peptide substrate is based on p53 with several modifications. In addition, the methionine residue naturally present in the sequence was replaced with the norleucine because the methionine may be susceptible to oxidation during synthesis and purification.
Test compounds may be added to the reaction as described above. […] After the 25 minute incubation with SIRT1, 10 μL of 10% formic acid is added to stop the reaction. Reactions are sealed and frozen for later mass spec analysis. Determination of the mass of the substrate peptide allows for precise determination of the degree of acetylation (i.e. starting material) as compared to deacetylated peptide (product).
A control for inhibition of sirtuin activity is conducted by adding 1 μL of 500 mM nicotinamide as a negative control at the start of the reaction (e.g., permits determination of maximum sirtuin inhibition). A control for activation of sirtuin activity is conducted using 10 nM of sirtuin protein, with 1 μL of DMSO in place of compound, to determine the amount of deacetylation of the substrate at a given timepoint within the linear range of the assay. This timepoint is the same as that used for test compounds and, within the linear range, the endpoint represents a change in velocity.
For the above assay, SIRT1 protein was expressed and purified as follows. […] The protein was expressed by induction with 1 mM IPTG as an N-terminal His-tag fusion protein at 18° C. overnight and harvested at 30,000×g. Cells were lysed with lysozyme in lysis buffer (50 mM Tris-HCl, 2 mM Tris[2-carboxyethyl]phosphine (TCEP), 10 μM ZnCl2, 200 mM NaCl) and further treated with sonication for 10 min for complete lysis. The protein was purified over a Ni-NTA column (Amersham) and fractions containing pure protein were pooled, concentrated and run over a sizing column (Sephadex S200 26/60 global). The peak containing soluble protein was collected and run on an Ion-exchange column (MonoQ). Gradient elution (200 mM-500 mM NaCl) yielded pure protein. This protein was concentrated and dialyzed against dialysis buffer (20 mM Tris-HCl, 2 mM TCEP) overnight. The protein was aliquoted and frozen at −80° C. until further use.
Sirtuin modulating compounds that activated SIRT1 were identified using the assay described above and are shown below in Table 3. The EC1.5 values represent the concentration of test compounds that result in 150% activation of SIRT1. NT means that the compound was not tested using the indicated assay. NA means that the compound was not active in the indicated assay.

Take `COCCN1CCN(Cc2cnc3sc(-c4ccccc4NC(=O)c4cccc(-c5ccccc5)c4)nc3c2)CC1` [Compound 33]: the “EC1.5 (concentration of test compound that results in 150% activation of SIRT1)” value was 91 NM and the Emax amounted to 533%.

Regarding `COCCN1CCN(Cc2cnc3sc(-c4ccccc4NC(=O)c4cccc(-c5ccccn5)c4)nc3c2)CC1` [Compound 34], the “EC1.5 (concentration of test compound that results in 150% activation of SIRT1)” value worked out at 281 NM and the Emax stood at 492%.

For `COCCN1CCN(Cc2cnc3sc(-c4ccccc4NC(=O)c4cncc(-c5ccccc5)c4)nc3c2)CC1` [Compound 35], the “EC1.5 (concentration of test compound that results in 150% activation of SIRT1)” value was found to be 554 NM and the Emax stood at 234%.

In the case of `O=C(Nc1ccccc1-c1nc2cc(CN[C@H]3CCNC3)cnc2s1)c1cccc(-c2ccccn2)c1` [Compound 37], the “EC1.5 (concentration of test compound that results in 150% activation of SIRT1)” value stood at 507 NM and the Emax turned out to be 422%.

Turning to `O=C(Nc1ccccc1-c1nc2cc(CN3CCOCC3)cnc2s1)c1cccc(-c2ncccn2)c1` [Compound 38], the “EC1.5 (concentration of test compound that results in 150% activation of SIRT1)” value stood at 548 NM and the Emax is 292%.

In the case of `Cc1nc(-c2cccc(C(=O)Nc3ccccc3-c3nc4cc(CN5CCOCC5)cnc4s3)c2)cs1` [Compound 39], the “EC1.5 (concentration of test compound that results in 150% activation of SIRT1)” value turned out to be 400 NM and the Emax turned out to be 241%.

`O=C(Nc1ccccc1-c1nc2cc(CN3CCOCC3)cnc2s1)c1cccc(-n2cccn2)c1` [Compound 40]: the “EC1.5 (concentration of test compound that results in 150% activation of SIRT1)” value was 182 NM and the Emax was found to be 397%.

Consider `COCCN1CCN(Cc2cnc3sc(-c4ccccc4NC(=O)c4cccc(-c5csc(C)n5)c4)nc3c2)CC1` [Compound 41], for which the “EC1.5 (concentration of test compound that results in 150% activation of SIRT1)” value came out at 652 NM and the Emax was found to be 275%.

Consider `COCCN1CCN(Cc2cnc3sc(-c4ccccc4NC(=O)c4cccc(-c5ncccn5)c4)nc3c2)CC1` [Compound 42], for which the “EC1.5 (concentration of test compound that results in 150% activation of SIRT1)” value came to 656 NM and the Emax was determined as 212%.

In the case of `O=C(Nc1ccccc1-c1nc2cc(CN3CC[C@@H](F)C3)cnc2s1)c1cccc(-n2cccn2)c1` [Compound 43], the “EC1.5 (concentration of test compound that results in 150% activation of SIRT1)” value was 215 NM and the Emax stood at 236%.

Take `O=C(Nc1ccccc1-c1nc2cc(CN3CCNCC3)cnc2s1)c1cccc(-n2cccn2)c1` [Compound 44]: the “EC1.5 (concentration of test compound that results in 150% activation of SIRT1)” value is 397 NM and the Emax was found to be 603%.

Regarding `COCCN1CCN(Cc2cnc3sc(-c4ccccc4NC(=O)c4cccc(-n5cccn5)c4)nc3c2)CC1` [Compound 45], the “EC1.5 (concentration of test compound that results in 150% activation of SIRT1)” value amounted to 144 NM and the Emax came out at 569%.

For `Cc1nc(-c2cccc(C(=O)Nc3ccccc3-c3nc4cc(CN5CCNCC5)cnc4s3)c2)cs1` [Compound 46], the “EC1.5 (concentration of test compound that results in 150% activation of SIRT1)” value turned out to be 503 NM and the Emax worked out at 446%.

With `COCCN1CCN(Cc2cnc3sc(-c4ccccc4NC(=O)c4cccc(-c5ccccc5)n4)nc3c2)CC1` [Compound 47], the “EC1.5 (concentration of test compound that results in 150% activation of SIRT1)” value turned out to be 82 NM.

On to `O=C(Nc1ccccc1-c1nc2cc(CN3CCOCC3)cnc2s1)c1cccc(-c2ccccc2F)c1` [Compound 48], for which the “EC1.5 (concentration of test compound that results in 150% activation of SIRT1)” value was determined as 395 NM and the Emax is 222%.

`O=C(Nc1ccccc1-c1nc2cc(CN3CCOCC3)cnc2s1)c1cccc(-c2cccc(F)c2)c1` [Compound 49]: the “EC1.5 (concentration of test compound that results in 150% activation of SIRT1)” value was 319 NM and the Emax was determined as 192%.

For `O=C(Nc1ccccc1-c1nc2cc(CN3CCOCC3)cnc2s1)c1cncc(-c2ccccc2F)c1` [Compound 50], the “EC1.5 (concentration of test compound that results in 150% activation of SIRT1)” value came to 533 NM and the Emax was 207%.

On to `O=C(Nc1ccccc1-c1nc2cc(CN3CCOCC3)cnc2s1)c1cncc(-c2cccc(F)c2)c1` [Compound 51], for which the “EC1.5 (concentration of test compound that results in 150% activation of SIRT1)” value came to 1640 NM and the Emax came out at 172%.

On to `O=C(Nc1ccccc1-c1nc2cc(CN3CCOCC3)cnc2s1)c1cccc(-c2ccccc2F)n1` [Compound 52], for which the “EC1.5 (concentration of test compound that results in 150% activation of SIRT1)” value came to 357 NM and the Emax was determined as 411%.

Turning to `O=C(Nc1ccccc1-c1nc2cc(CN3CCOCC3)cnc2s1)c1cccc(-c2cccc(F)c2)n1` [Compound 53], the “EC1.5 (concentration of test compound that results in 150% activation of SIRT1)” value worked out at 66 NM and the Emax came out at 837%.

With `O=C(Nc1ccccc1-c1nc2cc(CN3CC[C@@H](F)C3)cnc2s1)c1cccc(-c2cccc(F)c2)n1` [Compound 54], the “EC1.5 (concentration of test compound that results in 150% activation of SIRT1)” value was 110 NM and the Emax was found to be 538%.

Take `O=C(Nc1ccccc1-c1nc2cc(CN3CCOCC3)cnc2s1)c1cccc(-c2ccccc2)n1` [Compound 55]: the “EC1.5 (concentration of test compound that results in 150% activation of SIRT1)” value is 74 NM and the Emax was greater than 500%.

`COCCN1CCN(Cc2cnc3sc(-c4ccccc4NC(=O)c4ccnc(-c5ccccc5)c4)nc3c2)CC1` [Compound 56]: the “EC1.5 (concentration of test compound that results in 150% activation of SIRT1)” value is 458 NM and the Emax was determined as 389%.

For `COCCN1CCN(Cc2cnc3sc(-c4ccccc4NC(=O)c4cccc(-c5cccc(F)c5)n4)nc3c2)CC1` [Compound 57], the “EC1.5 (concentration of test compound that results in 150% activation of SIRT1)” value was 41 NM and the Emax was greater than 500%.

With `COCCN1CCN(Cc2cnc3sc(-c4ccccc4NC(=O)c4cccc(-c5cccnc5)c4)nc3c2)CC1` [Compound 58], the “EC1.5 (concentration of test compound that results in 150% activation of SIRT1)” value is given as 884 NM and the Emax worked out at 370%.

Consider `COCCN1CCN(Cc2cnc3sc(-c4ccccc4NC(=O)c4cccc(-c5ccncc5)c4)nc3c2)CC1` [Compound 59], for which the “EC1.5 (concentration of test compound that results in 150% activation of SIRT1)” value is 492 NM and the Emax was found to be 279%.

For `O=C(Nc1ccccc1-c1nc2cc(CN3CCCC3)cnc2s1)c1cccc(-c2ccccc2)n1` [Compound 60], the “EC1.5 (concentration of test compound that results in 150% activation of SIRT1)” value worked out at 144 NM and the Emax worked out at 477%.

As for `O=C(Nc1ccccc1-c1nc2cc(CN3CCCC3)cnc2s1)c1cccc(-c2cccc(F)c2)n1` [Compound 61], the “EC1.5 (concentration of test compound that results in 150% activation of SIRT1)” value is on record as 78 NM and the Emax was greater than 500%.

Regarding `O=C(Nc1ccccc1-c1nc2cc(CN3CCNCC3)cnc2s1)c1cc(-c2ccccc2)no1` [Compound 62], the “EC1.5 (concentration of test compound that results in 150% activation of SIRT1)” value amounted to 592 NM and the Emax came out at 231%.

Consider `O=C(Nc1ccccc1-c1nc2cc(CN3CCNCC3)cnc2s1)c1cnc2ccccc2n1` [Compound 63], for which the “EC1.5 (concentration of test compound that results in 150% activation of SIRT1)” value was determined as 859 NM and the Emax is 303%.

In the case of `O=C(Nc1ccccc1-c1nc2cc(CN3CCNCC3)cnc2s1)c1ccc2ccccc2n1` [Compound 64], the “EC1.5 (concentration of test compound that results in 150% activation of SIRT1)” value is 260 NM and the Emax is greater than 500%.

Take `O=C(Nc1ccccc1-c1nc2cc(CN3CCOCC3)cnc2s1)c1cnc2ccccc2n1` [Compound 65]: the Emax stood at 100%.
